Source: ChEMBL document CHEMBL3769367, “Orexin Receptor Antagonists: New Therapeutic Agents for the Treatment of Insomnia” (J Med Chem, 2016)
pIC50: −log10 of the molar value.

Assays:
[1] = Clearance in iv dosed Sprague-Dawley rat; assay type: ADME, organism-based; settings: in vivo
[2] = Oral bioavailability Beagle dog; assay type: ADME, organism-based, Canis lupus familiaris; settings: in vivo
[3] = Half life in iv dosed Sprague-Dawley rat; assay type: ADME, organism-based; settings: in vivo
[4] = Plasma protein binding in Sprague-Dawley rat; assay type: ADME, cell-free; settings: read-out: PPB (converted)
Mus musculus = assay: Effect on sleep parameter in po dosed C57/BL6 mouse by EEG analysis; assay type: functional
Orexin receptor type 2 = molecular target: T1, Orexin receptor type 2 (Homo sapiens, UniProt O43614); assay: Antagonist activity at human OX2R expressed in CHO cells by FLIPR assay; assay type: cell-based
T1 sequence (O43614 whole entry): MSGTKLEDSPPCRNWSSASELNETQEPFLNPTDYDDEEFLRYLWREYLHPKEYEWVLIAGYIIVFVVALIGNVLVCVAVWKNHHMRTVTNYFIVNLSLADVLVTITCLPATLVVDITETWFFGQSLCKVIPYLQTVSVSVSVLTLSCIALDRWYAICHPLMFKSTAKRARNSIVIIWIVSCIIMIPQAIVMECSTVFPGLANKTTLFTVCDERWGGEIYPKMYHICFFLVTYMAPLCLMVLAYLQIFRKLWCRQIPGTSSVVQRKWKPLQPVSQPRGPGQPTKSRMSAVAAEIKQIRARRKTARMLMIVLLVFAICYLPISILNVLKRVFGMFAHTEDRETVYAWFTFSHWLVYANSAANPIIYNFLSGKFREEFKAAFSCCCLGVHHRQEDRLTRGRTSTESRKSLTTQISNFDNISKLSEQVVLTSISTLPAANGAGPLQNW

Liver microsome = assay: GSH activity in human liver microsomes assessed as reduction in GSH adduct formation; assay type: ADME; parameters: scale not given: the % may be the effect or the level left
Rattus norvegicus [5] = organism: Rattus norvegicus; assay: Receptor occupancy at OX2R in rat brain assessed as drug level in plasma; assay type: functional
[6] = molecular target: T2, Orexin/Hypocretin receptor type 1 (Homo sapiens, UniProt O43613); assay: Antagonist activity at human OX1R expressed in CHO cells by FLIPR assay; assay type: cell-based
T2 sequence (O43613 whole entry): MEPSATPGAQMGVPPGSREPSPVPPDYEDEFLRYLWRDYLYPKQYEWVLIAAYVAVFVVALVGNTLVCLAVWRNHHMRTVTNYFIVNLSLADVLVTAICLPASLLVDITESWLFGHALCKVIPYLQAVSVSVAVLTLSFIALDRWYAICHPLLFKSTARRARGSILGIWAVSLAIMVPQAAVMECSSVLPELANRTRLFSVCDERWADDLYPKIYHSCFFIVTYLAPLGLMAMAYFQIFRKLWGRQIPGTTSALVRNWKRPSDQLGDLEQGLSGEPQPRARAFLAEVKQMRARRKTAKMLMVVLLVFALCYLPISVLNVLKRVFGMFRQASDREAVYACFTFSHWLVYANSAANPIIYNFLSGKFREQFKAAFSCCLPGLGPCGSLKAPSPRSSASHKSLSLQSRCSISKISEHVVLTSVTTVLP

[7] = Tmax in human plasma at 5 to 250 mg, po; assay type: ADME, organism-based
Cytochrome P450 3A4 = Cytochrome P450 3A4 (Homo sapiens, UniProt P08684); assay: Inhibition of CYP3A4 (unknown origin); assay type: ADME
[8] = Lipophilicity, log D of the compound; assay type: physicochemical; settings: octanol/water
[9] = Plasma protein binding in human; assay type: ADME, cell-free; settings: read-out: PPB (converted)
[10] = Oral bioavailability rhesus monkey; assay type: ADME, organism-based, Macaca mulatta; settings: in vivo
[11] = Half life in human plasma at 5 to 250 mg, po; assay type: ADME, organism-based
Rhesus monkey = assay: Effect on sleep parameter in po dosed rhesus monkey by EEG analysis; assay type: functional, Macaca mulatta
[12] = Half life in iv dosed Beagle dog; assay type: ADME, organism-based, Canis lupus familiaris; settings: in vivo
[13] = Oral bioavailability in Sprague-Dawley rat; assay type: ADME, organism-based; settings: in vivo
Canis familiaris [14] = assay: Effect on sleep parameter in po dosed Beagle dog by EEG analysis; assay type: functional, Canis lupus familiaris
[15] = Plasma protein binding in Beagle dog; assay type: ADME, cell-free, Canis lupus familiaris; settings: read-out: PPB (converted)
[16] = Clearance in iv dosed Beagle dog; assay type: ADME, organism-based, Canis lupus familiaris; settings: in vivo
[17] = Plasma protein binding in rhesus monkey; assay type: ADME, cell-free, Macaca mulatta; settings: read-out: PPB (converted)
Rattus norvegicus [18] = assay: Effect on sleep parameter in po dosed Sprague-Dawley rat by EEG analysis; assay type: functional
[19] = Clearance in iv dosed rhesus monkey; assay type: ADME, organism-based, Macaca mulatta; settings: in vivo
[20] = Half life in iv dosed rhesus monkey; assay type: ADME, organism-based, Macaca mulatta; settings: in vivo
Homo sapiens [21] = assay: Effect on sleep parameter in insomnia patient assessed as wake after sleep onset time at 10 mg, po measured on night 1 by polysomnography; assay type: functional
Homo sapiens [22] = assay: Effect on sleep parameter in insomnia patient assessed as wake after sleep onset time at 80 mg, po measured on night 28 by polysomnography; assay type: functional
Homo sapiens [23] = assay: Effect on sleep parameter in insomnia patient assessed as sleep efficiency at 40 mg, po measured on night 1 by polysomnography; assay type: functional
Homo sapiens [24] = assay: Effect on sleep parameter in insomnia patient assessed as wake after sleep onset time at 40 mg, po measured on night 28 by polysomnography; assay type: functional
Homo sapiens [25] = assay: Effect on sleep parameter in insomnia patient assessed as sleep efficiency at 20 mg, po measured on night 1 by polysomnography; assay type: functional
Homo sapiens [26] = assay: Effect on sleep parameter in insomnia patient assessed as sleep efficiency at 40 mg, po measured on night 28 by polysomnography; assay type: functional
Homo sapiens [27] = assay: Effect on sleep parameter in insomnia patient assessed as wake after sleep onset time at 40 mg, po measured on night 1 by polysomnography; assay type: functional
[28] = Tmax in human plasma; assay type: ADME, organism-based
[29] = Clearance in iv dosed rat; assay type: ADME, organism-based; settings: in vivo
Rattus norvegicus [30] = assay: Effect on sleep parameter in po dosed rat by EEG analysis; assay type: functional
Homo sapiens [31] = assay: Effect on sleep parameter in insomnia patient assessed as total sleep time at 10 mg, po measured on night 1 by polysomnography; assay type: functional
[32] = Apparent permeability of the compound; assay type: physicochemical; settings: not told
Homo sapiens [33] = assay: Effect on sleep parameter in insomnia patient assessed as total sleep time at 20 mg, po measured on night 1 by polysomnography; assay type: functional
Homo sapiens [34] = assay: Effect on sleep parameter in insomnia patient assessed as total sleep time at 80 mg, po measured on night 28 by polysomnography; assay type: functional
Homo sapiens [35] = assay: Effect on sleep parameter in insomnia patient assessed as total sleep time at 20 mg, po measured on night 28 by polysomnography; assay type: functional
Homo sapiens [36] = assay: Effect on sleep parameter in insomnia patient assessed as total sleep time at 40 mg, po measured on night 1 by polysomnography; assay type: functional
Homo sapiens [37] = assay: Effect on sleep parameter in insomnia patient assessed as latency to persistent sleep time at 80 mg, po measured on night 1 by polysomnography; assay type: functional
Homo sapiens [38] = assay: Effect on sleep parameter in insomnia patient assessed as wake after sleep onset time at 20 mg, po measured on night 1 by polysomnography; assay type: functional
Homo sapiens [39] = assay: Effect on sleep parameter in insomnia patient assessed as latency to persistent sleep time at 40 mg, po measured on night 28 by polysomnography; assay type: functional
[40] = Terminal half life in human plasma; assay type: ADME, organism-based; settings: read-out: beta t1/2 (converted)
Homo sapiens [41] = assay: Effect on sleep parameter in insomnia patient assessed as latency to persistent sleep time at 20 mg, po measured on night 1 by polysomnography; assay type: functional
Homo sapiens [42] = assay: Effect on sleep parameter in insomnia patient assessed as sleep efficiency at 20 mg, po measured on night 28 by polysomnography; assay type: functional
Homo sapiens [43] = assay: Effect on sleep parameter in insomnia patient assessed as wake after sleep onset time at 20 mg, po measured on night 28 by polysomnography; assay type: functional
Homo sapiens [44] = assay: Effect on sleep parameter in insomnia patient assessed as wake after sleep onset time at 80 mg, po measured on night 1 by polysomnography; assay type: functional
Homo sapiens [45] = assay: Effect on sleep parameter in insomnia patient assessed as latency to persistent sleep time at 80 mg, po measured on night 28 by polysomnography; assay type: functional
Homo sapiens [46] = assay: Effect on sleep parameter in insomnia patient assessed as total sleep time at 10 mg, po measured on night 28 by polysomnography; assay type: functional
Homo sapiens [47] = assay: Effect on sleep parameter in insomnia patient assessed as wake after sleep onset time at 10 mg, po measured on night 28 by polysomnography; assay type: functional
Homo sapiens [48] = assay: Effect on sleep parameter in insomnia patient assessed as latency to persistent sleep time at 40 mg, po measured on night 1 by polysomnography; assay type: functional
[49] = Plasma protein binding in dog; assay type: ADME, cell-free, Canis lupus familiaris; settings: read-out: PPB (converted)
Homo sapiens [50] = assay: Effect on sleep parameter in insomnia patient assessed as latency to persistent sleep time at 20 mg, po measured on night 28 by polysomnography; assay type: functional
Homo sapiens [51] = assay: Effect on sleep parameter in insomnia patient assessed as sleep efficiency at 10 mg, po measured on night 28 by polysomnography; assay type: functional
Homo sapiens [52] = assay: Effect on sleep parameter in insomnia patient assessed as latency to persistent sleep time at 10 mg, po measured on night 1 by polysomnography; assay type: functional
Homo sapiens [53] = assay: Effect on sleep parameter in insomnia patient assessed as sleep efficiency at 80 mg, po measured on night 1 by polysomnography; assay type: functional
Homo sapiens [54] = assay: Effect on sleep parameter in insomnia patient assessed as total sleep time at 80 mg, po measured on night 1 by polysomnography; assay type: functional
Homo sapiens [55] = assay: Effect on sleep parameter in insomnia patient assessed as total sleep time at 40 mg, po measured on night 28 by polysomnography; assay type: functional
Canis familiaris [56] = assay: Effect on sleep parameter in po dosed dog by EEG analysis; assay type: functional, Canis lupus familiaris
Homo sapiens [57] = assay: Effect on sleep parameter in insomnia patient assessed as latency to persistent sleep time at 10 mg, po measured on night 28 by polysomnography; assay type: functional
Homo sapiens [58] = assay: Effect on sleep parameter in insomnia patient assessed as sleep efficiency at 80 mg, po measured on night 28 by polysomnography; assay type: functional
Homo sapiens [59] = assay: Effect on sleep parameter in insomnia patient assessed as sleep efficiency at 10 mg, po measured on night 1 by polysomnography; assay type: functional

Sequence of Cytochrome P450 3A4 (P08684 whole entry): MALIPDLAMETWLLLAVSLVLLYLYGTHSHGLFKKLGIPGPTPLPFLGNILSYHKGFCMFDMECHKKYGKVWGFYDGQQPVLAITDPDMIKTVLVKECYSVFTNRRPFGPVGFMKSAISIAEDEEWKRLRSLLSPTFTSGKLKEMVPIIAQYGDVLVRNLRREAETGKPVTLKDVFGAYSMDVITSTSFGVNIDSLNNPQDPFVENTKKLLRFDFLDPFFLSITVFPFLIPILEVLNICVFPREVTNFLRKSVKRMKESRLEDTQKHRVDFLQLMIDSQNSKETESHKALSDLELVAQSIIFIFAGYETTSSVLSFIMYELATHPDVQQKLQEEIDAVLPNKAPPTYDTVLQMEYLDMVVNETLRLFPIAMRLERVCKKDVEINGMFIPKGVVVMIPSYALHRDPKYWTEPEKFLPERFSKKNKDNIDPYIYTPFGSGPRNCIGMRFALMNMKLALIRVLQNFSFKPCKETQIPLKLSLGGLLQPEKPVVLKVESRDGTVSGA

COc1ccc(CNC(=O)c2cc(-c3cncc(Cl)c3)cnc2-c2ccccn2)nc1OC [MK-1064]
clearance [1]: 36 mL/min/kg | bioavailability [2]: 48% | half-life [3]: 0.3 h | fraction unbound [4]: 0.19 | Activity (Mus musculus): 100 mg/kg | pIC50 (Orexin receptor type 2): 7.74 | Activity (Liver microsome): 85% | Occ90 (Rattus norvegicus [5]): 695 nM | pIC50 [6]: 5.75 | Tmax [7]: 1 h | pIC50 (Cytochrome P450 3A4): 4.55 | logD [8]: 1.8 | fraction unbound [9]: 0.03 | bioavailability [10]: 16% | half-life [11]: 1.6 h | Activity (Rhesus monkey): 10 mg/kg | half-life [12]: 1 h | bioavailability [13]: 54% | Activity (Canis familiaris [14]): 1 mg/kg | fraction unbound [15]: 0.29 | clearance [16]: 16 mL/min/kg | fraction unbound [17]: 0.06 | Activity (Rattus norvegicus [18]): 20 mg/kg | clearance [19]: 12 mL/min/kg | half-life [20]: 0.8 h

Cc1ccc(-n2nccn2)c(C(=O)N2CCN(c3nc4cc(Cl)ccc4o3)CC[C@H]2C)c1 [SUVOREXANT]
Time (Homo sapiens [21]): -21.2 min | Time (Homo sapiens [22]): -28.9 min | Activity (Homo sapiens [23]): 10.8% | Time (Homo sapiens [24]): -33.2 min | Activity (Homo sapiens [25]): 7.6% | Activity (Homo sapiens [26]): 7.8% | Time (Homo sapiens [27]): -33.9 min | Tmax [28]: 1.5 h | clearance [29]: 44 mL/min/kg | Activity (Rattus norvegicus [30]): 10 mg/kg | Time (Homo sapiens [31]): 25.1 min | Occ90 (Rattus norvegicus [5]): 1070 nM | Papp [32]: 37 ×10⁻⁶ cm/s | Time (Homo sapiens [33]): 36.2 min | Time (Homo sapiens [34]): 36.6 min | Time (Homo sapiens [35]): 49.9 min | Time (Homo sapiens [36]): 52.4 min | Time (Homo sapiens [37]): -25.4 min | Time (Homo sapiens [38]): -24.7 min | Time (Homo sapiens [39]): -3.8 min | half-life [40]: 8 h | Time (Homo sapiens [41]): -9.4 min | Activity (Homo sapiens [42]): 10.4% | Time (Homo sapiens [43]): -28.1 min | Time (Homo sapiens [44]): -36.8 min | Time (Homo sapiens [45]): -9.5 min | Time (Homo sapiens [46]): 22.3 min | Time (Homo sapiens [47]): -21.4 min | Time (Homo sapiens [48]): -23.1 min | fraction unbound [49]: 0.01 | Time (Homo sapiens [50]): -22.3 min | Activity (Homo sapiens [51]): 4.7% | Time (Homo sapiens [52]): -3.4 min | Activity (Homo sapiens [53]): 12.9% | Time (Homo sapiens [54]): 61.9 min | Time (Homo sapiens [55]): 36.8 min | Activity (Canis familiaris [56]): 3 mg/kg | Time (Homo sapiens [57]): -2.3 min | Activity (Homo sapiens [58]): 7.6% | Activity (Homo sapiens [59]): 5.2%
